*1 amine or outer side, *2 acyl side, *3 side chain or, on linkers, in order; H or OH if unused. Where a SMILES comes first, the peptide text is derived from it. The star is where a group is joined. AMC = Cc1cc(=O)oc2cc(N*)ccc12; Suc = O=C(CCC(=O)[*:2])[*:1]

Data on 63 molecules can be found in ChEMBL document CHEMBL5360644, “Structure-Activity Relationship Studies of 2,4,5-Trisubstituted Pyrimidine Derivatives Leading to the Identification of a Novel and Potent Sirtuin 5 Inhibitor against Sepsis-Associated Acute Kidney Injury” (J Med Chem, 2023).

In one experiment the target is T1, NAD-dependent protein deacetylase sirtuin-2 (Homo sapiens, UniProt Q8IXJ6).
T1 sequence (Q8IXJ6 whole entry): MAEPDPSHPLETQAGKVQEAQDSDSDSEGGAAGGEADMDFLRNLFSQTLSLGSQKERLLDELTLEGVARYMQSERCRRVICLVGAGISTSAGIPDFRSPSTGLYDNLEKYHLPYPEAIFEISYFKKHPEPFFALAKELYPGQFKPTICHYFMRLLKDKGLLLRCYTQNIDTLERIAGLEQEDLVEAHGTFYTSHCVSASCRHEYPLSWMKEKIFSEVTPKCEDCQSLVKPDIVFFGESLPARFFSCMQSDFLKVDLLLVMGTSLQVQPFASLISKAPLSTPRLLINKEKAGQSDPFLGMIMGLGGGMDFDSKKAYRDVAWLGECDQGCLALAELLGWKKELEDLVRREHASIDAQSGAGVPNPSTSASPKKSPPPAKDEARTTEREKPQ
Kind of experiment: Inhibition of recombinant SIRT2 (unknown origin) using Ac-Glu-Thr-Asp-Lys (Dec)-AMC as substrate.
For the molecule `O=C(O)CCNC(=S)NCCCNc1nc(Nc2ccccc2Cl)ncc1C(=O)N1CC[C@H](c2ccccc2)C1`, the half-inhibitory concentration (IC50) (in general, the concentration that inhibits the measured activity by half) was 39.6 µM.

The target of another experiment is T2, NAD-dependent protein deacylase sirtuin-5, mitochondrial (Homo sapiens, UniProt Q9NXA8). Kind of experiment: Inhibition of human SIRT5 (34 to 269 residues) using Ac-Leu-Gly-Ser-Lys (Su)-AMC as fluorogenic substrate in presence of NAD+.
Target sequence in this assay (Q9NXA8 whole entry, the tested form may be a part): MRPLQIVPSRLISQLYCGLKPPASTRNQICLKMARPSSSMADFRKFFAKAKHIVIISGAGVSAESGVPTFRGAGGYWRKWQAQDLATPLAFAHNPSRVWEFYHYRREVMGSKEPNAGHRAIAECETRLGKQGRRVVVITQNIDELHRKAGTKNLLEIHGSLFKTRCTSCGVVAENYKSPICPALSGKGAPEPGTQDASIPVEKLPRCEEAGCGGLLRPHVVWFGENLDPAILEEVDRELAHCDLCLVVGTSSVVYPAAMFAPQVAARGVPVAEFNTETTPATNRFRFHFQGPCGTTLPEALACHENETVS
Take `CCOC(=O)c1cnc(Nc2cccc(F)c2)nc1NCCCNC(=S)NCCC(=O)O`: the IC50 turned out to be 9.57 µM. With `CC[C@@H](NC(=O)c1cnc(Nc2ccccc2Cl)nc1NCCCNC(=S)NCCC(=O)O)c1ccccc1`, the concentration for half-maximal inhibition (IC50) amounted to 0.58 µM. On the same count and under the same terms, in the case of `O=C(O)CCNC(=S)NCCCNc1nc(Nc2ccccc2Cl)ncc1C(=O)N1CCCC(c2ccccc2)C1` (stereo not given) it was 3.66 µM. Still for that read-out and setting: under `CCOC(=O)c1cnc(Nc2ccccc2Br)nc1NCCCNC(=S)NCCC(=O)O` stands 4.06 µM. On to `CCOC(=O)c1cnc(Nc2ccc(Cl)cc2)nc1NCCCNC(=S)NCCC(=O)O`, for which the IC50 is 9.4 µM. On the same count and under the same terms, in the case of `CCOC(=O)c1cnc(Nc2ccc(F)cc2)nc1NCCCNC(=S)NCCC(=O)O` it was 7.54 µM; in that of `O=C(O)CCNC(=S)NCCCNc1nc(Nc2ccccc2Cl)ncc1C(=O)Nc1ccc2ccccc2c1`, 5.15 µM; in that of `Cc1ccccc1NC(=O)c1cnc(Nc2ccccc2Cl)nc1NCCCNC(=S)NCCC(=O)O`, 5.45 µM. Still for that read-out and setting: in the case of `O=C(O)CCNC(=S)NCCCNc1nc(Nc2ccccc2Cl)ncc1C(=O)N1CCC(c2ccccc2)CC1` it was 3.54 µM; in that of `CCOC(=O)c1cnc(Nc2cccc(F)c2C)nc1NCCCNC(=S)NCCC(=O)O`, 2.38 µM; in that of `O=C(O)CCNC(=S)NCCCNc1nc(Nc2ccccc2Cl)ncc1C(=O)N1CCCC1c1ccccc1` (stereo not given), 27.3 µM. The same measure, in the same setting: under `CC(C)(C)OC(=O)[C@@H](NC(=O)c1cnc(Nc2ccccc2Cl)nc1NCCCNC(=S)NCCC(=O)O)c1ccccc1` stands 1.55 µM. As to `CCOC(=O)c1cnc(Nc2cccc(Br)c2C)nc1NCCCNC(=S)NCCC(=O)O`, the half-maximal inhibitory concentration (IC50) stood at 3.48 µM. Still for that read-out and setting: in the case of `CC(C)CNC(=O)c1cnc(Nc2ccccc2Cl)nc1NCCCNC(=S)NCCC(=O)O` it was 6.72 µM; in that of `O=C(O)CCNC(=S)NCCCNc1nc(Nc2ccccc2Cl)ncc1C(=O)N[C@H]1CCCC[C@@H]1O`, 8.95 µM.

As to `CCCNC(=O)c1cnc(Nc2ccccc2Cl)nc1NCCCNC(=S)NCCC(=O)O`, the IC50 is 7.83 µM. As for `O=C(O)CCNC(=S)NCCCNc1nc(Nc2ccccc2Cl)ncc1C(=O)Nc1ccccc1`, the IC50 is 3.18 µM.

For the molecule `CCOC(=O)c1cnc(Nc2ccc(Br)cc2C)nc1NCCCNC(=S)NCCC(=O)O`, the IC50 was determined as 2.7 µM. The same measure, in the same setting: under `O=C(O)CCNC(=S)NCCCNc1nc(Nc2ccccc2Cl)ncc1C(=O)Nc1cccc2ccccc12` stands 2.95 µM; under `CCOC(=O)c1cnc(Nc2ccccc2-c2ccccc2)nc1NCCCNC(=S)NCCC(=O)O`, 3.98 µM. Turning to `O=C(O)CCNC(=S)NCCCNc1nc(Nc2ccccc2Cl)ncc1C(=O)O`, the IC50 was 1.64 µM. Still for that read-out and setting: under `CC(C)(C)OC(=O)[C@H](NC(=O)c1cnc(Nc2ccccc2Cl)nc1NCCCNC(=S)NCCC(=O)O)c1ccccc1` stands 1.82 µM. On the same count and under the same terms, under `CCOC(=O)c1cnc(Nc2ccc(C)cc2)nc1NCCCNC(=S)NCCC(=O)O` stands 11.6 µM; under `CC[C@H](NC(=O)c1cnc(Nc2ccccc2Cl)nc1NCCCNC(=S)NCCC(=O)O)c1ccccc1`, 3.72 µM; under `CCOC(=O)c1cnc(Nc2cc(OC)cc(OC)c2)nc1NCCCNC(=S)NCCC(=O)O`, 6.9 µM. Same read-out and setting: in the case of `O=C(O)CCNC(=S)NCCCNc1nc(Nc2ccccc2Cl)ncc1C(=O)N[C@H]1c2ccccc2C[C@H]1O` it was 4.18 µM.

For `CCOC(=O)c1cnc(Nc2ccccc2OC)nc1NCCCNC(=S)NCCC(=O)O`, the IC50 turned out to be 10.7 µM. Same read-out and setting: in the case of `CCOC(=O)c1cnc(Nc2ccccc2)nc1NCCCNC(=S)NCCC(=O)O` it was 7.67 µM; in that of `CCOC(=O)c1cnc(Nc2cccc(OC)c2)nc1NCCCNC(=S)NCCC(=O)O`, 17.1 µM. As to `CC(CCc1ccccc1)NC(=O)c1cnc(Nc2ccccc2Cl)nc1NCCCNC(=S)NCCC(=O)O` (stereo not given), the IC50 came to 1.6 µM. Same read-out and setting: under `CCOC(=O)c1cnc(Nc2ccc(OC)cc2)nc1NCCCNC(=S)NCCC(=O)O` stands 10.5 µM; under `O=C(O)CCNC(=S)NCCCNc1nc(Nc2ccccc2Cl)ncc1C(=O)NCc1ccccc1`, 1.11 µM; under `CCOC(=O)c1cnc(Nc2ccccc2F)nc1NCCCNC(=S)NCCC(=O)O`, 5.87 µM. On the same count and under the same terms, in the case of `O=C(O)CCNC(=S)NCCCNc1nc(Nc2ccccc2Cl)ncc1C(=O)N[C@@H]1C[C@H]1c1ccc(F)c(F)c1` it was 1.24 µM; in that of `O=C(O)CCNC(=S)NCCCNc1nc(Nc2ccccc2Cl)ncc1C(=O)N1CCCC1`, 21.5 µM; in that of `CCOC(=O)c1cnc(Nc2cccc(C)c2Br)nc1NCCCNC(=S)NCCC(=O)O`, 2.3 µM.

On to `CC(C)c1ccccc1NC(=O)c1cnc(Nc2ccccc2Cl)nc1NCCCNC(=S)NCCC(=O)O`, for which the IC50 was 2.82 µM. Still for that read-out and setting: in the case of `COC(=O)c1cnc(Nc2ccccc2Cl)nc1NCCCNC(=S)NCCC(=O)O` it was 3.34 µM.

For `O=C(O)CCNC(=S)NCCCNc1nc(Nc2ccccc2Cl)ncc1C(=O)N[C@@H](Cc1ccccc1)C(=O)O`, the half-inhibitory concentration (IC50) was 1.71 µM.

Take `CCOC(=O)c1cnc(Nc2ccccc2Cl)nc1NCCCNC(=S)NCCC(=O)O`: the IC50 is 1.9 µM. On the same count and under the same terms, under `CCOC(=O)c1cnc(Nc2cccc(C)c2)nc1NCCCNC(=S)NCCC(=O)O` stands 16.9 µM; under `CCOC(=O)c1cnc(Nc2cccc(Br)c2)nc1NCCCNC(=S)NCCC(=O)O`, 22 µM; under `O=C(O)CCNC(=S)NCCCNc1nc(Nc2ccccc2Cl)ncc1C(=O)N1CC[C@H](c2ccccc2)C1`, 0.31 µM. The same measure, in the same setting: in the case of `CCOC(=O)c1cnc(Nc2ccc(Br)cc2)nc1NCCCNC(=S)NCCC(=O)O` it was 7.52 µM. Same read-out and setting: under `COc1ccccc1NC(=O)c1cnc(Nc2ccccc2Cl)nc1NCCCNC(=S)NCCC(=O)O` stands 5.37 µM; under `O=C(O)CCNC(=S)NCCCNc1nc(Nc2ccccc2Cl)ncc1C(=O)NC1(c2ccccc2)CC1`, 2.8 µM; under `CCOC(=O)c1cnc(Nc2cccc(Cl)c2)nc1NCCCNC(=S)NCCC(=O)O`, 13.4 µM. Take `CCOC(=O)c1cnc(Nc2ccccc2C)nc1NCCCNC(=S)NCCC(=O)O`: the IC50 turned out to be 3.53 µM. On the same count and under the same terms, in the case of `CCOC(=O)c1cnc(Nc2cccc(F)c2Cl)nc1NCCCNC(=S)NCCC(=O)O` it was 2.39 µM; in that of `CCOC(=O)c1cnc(Nc2c(C)cccc2C)nc1NCCCNC(=S)NCCC(=O)O`, 3.16 µM; in that of `CCOC(=O)c1cnc(Nc2c(F)cccc2F)nc1NCCCNC(=S)NCCC(=O)O`, 2.82 µM. With `O=C(O)CCNC(=S)NCCCNc1nc(Nc2ccccc2Cl)ncc1C(=O)N1CCOCC1`, the IC50 came out at 8.6 µM. As for `O=C(O)CCNC(=S)NCCCNc1nc(Nc2ccccc2Cl)ncc1C(=O)NCCc1cc2ccccc2[nH]1`, the IC50 was 1.43 µM.

Turning to `O=C(O)CCNC(=S)NCCCNc1nc(Nc2ccccc2Cl)ncc1C(=O)N1CCC(c2ccccc2)C1` (stereo not given), the IC50 turned out to be 0.53 µM. Same read-out and setting: under `O=C(O)CCNC(=S)NCCCNc1nc(Nc2ccccc2Cl)ncc1C(=O)Nc1ccccc1-c1ccccc1` stands 4.84 µM; under `O=C(O)CCNC(=S)NCCCNc1nc(Nc2ccccc2Cl)ncc1C(=O)N[C@@H]1C[C@H]1c1ccccc1`, 2.54 µM; under `O=C(O)CCNC(=S)NCCCNc1nc(Nc2ccccc2Cl)ncc1C(=O)NC1CC1`, 9.56 µM. Still for that read-out and setting: in the case of `C[C@H](NC(=O)c1cnc(Nc2ccccc2Cl)nc1NCCCNC(=S)NCCC(=O)O)c1ccccc1` it was 1.74 µM; in that of `CC(C)OC(=O)c1cnc(Nc2ccccc2Cl)nc1NCCCNC(=S)NCCC(=O)O`, 2.77 µM; in that of `O=C(O)CCNC(=S)NCCCNc1nc(Nc2ccccc2Cl)ncc1C(=O)NC1CCC1`, 7.93 µM. Still for that read-out and setting: in the case of `COc1cc(NC(=O)c2cnc(Nc3ccccc3Cl)nc2NCCCNC(=S)NCCC(=O)O)cc(OC)c1` it was 1.54 µM; in that of `C[C@@H](NC(=O)c1cnc(Nc2ccccc2Cl)nc1NCCCNC(=S)NCCC(=O)O)c1ccccc1`, 1.08 µM.

The target in a further experiment is T2, NAD-dependent protein deacylase sirtuin-5, mitochondrial. Nature of the experiment: Binding affinity to human SIRT5 (34 to 269 residues) assessed as thermal stabilization by measuring change in melting temperature at 60 uM incubated for 10 mins in presence of NAD+ by SYPRO orange dye based thermal shift assay.
Target sequence in this assay (Q9NXA8 37-310 limits assumed): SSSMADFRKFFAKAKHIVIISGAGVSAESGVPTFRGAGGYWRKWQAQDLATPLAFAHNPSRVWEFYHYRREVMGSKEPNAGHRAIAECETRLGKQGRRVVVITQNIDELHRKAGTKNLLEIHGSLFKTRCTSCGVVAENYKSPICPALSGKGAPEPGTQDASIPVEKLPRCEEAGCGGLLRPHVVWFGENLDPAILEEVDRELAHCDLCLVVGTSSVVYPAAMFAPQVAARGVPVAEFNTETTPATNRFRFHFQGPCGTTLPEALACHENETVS
`CC(=O)N[C@@H](CC(C)C)C(=O)NCC(=O)N[C@@H](CO)C(=O)N[C@@H](CCCCNC(=O)CCC(=O)O)C(=O)Nc1ccc2c(C)cc(=O)oc2c1` (Ac-LGSK(Suc)-{AMC}): the ΔTm (commonly the change in melting temperature against a reference sample) came to 0.97 °C.

The next experiment has the same target. Nature of the experiment: Binding affinity to human SIRT5 (34 to 269 residues) assessed as thermal stabilization by measuring melting temperature at 60 uM incubated for 10 mins in presence of NAD+ by SYPRO orange dye based thermal shift assay (reference value: 66.32 degreeC).
Target sequence in this assay (Q9NXA8 37-310 limits assumed): as above
In the case of `CC(=O)N[C@@H](CC(C)C)C(=O)NCC(=O)N[C@@H](CO)C(=O)N[C@@H](CCCCNC(=O)CCC(=O)O)C(=O)Nc1ccc2c(C)cc(=O)oc2c1` (Ac-LGSK(Suc)-{AMC}), the midpoint of thermal melting (Tm) – broadly, the temperature at which the thermal transition is half complete – was found to be 67.3 °C.
